± gives the expanded uncertainty stated by the source.
Assay: mn = molality of the nth substance listed, in mol/kg
Conditions: Liquid

## CCCO [propan-1-ol] + O
292.05 K, 101 kPa, Pycnometric method, m1 = 0.869
  mass density: 991.42 ± 1 kg/m3
293.45 K, 101 kPa, Pycnometric method, m1 = 2.936
  mass density: 980.4 ± 1 kg/m3
294.85 K, 101 kPa, Pycnometric method, m1 = 56.35
  mass density: 851.23 ± 0.88 kg/m3
295.15 K, 101 kPa, Pycnometric method, m1 = 0.869
  mass density: 990.4 ± 1 kg/m3
298.15 K, 101 kPa, Pycnometric method, m1 = 0.869
  mass density: 989.5 ± 1 kg/m3
298.15 K, 101 kPa, Pycnometric method, m1 = 2.936
  mass density: 978.54 ± 1 kg/m3
298.15 K, 5000 kPa, Constant-volume piezometry, m1 = 0.869
  mass density: 990.5 ± 1.2 kg/m3
298.15 K, 5000 kPa, Constant-volume piezometry, m1 = 2.465
  mass density: 980.7 ± 1.2 kg/m3
298.15 K, 10000 kPa, Constant-volume piezometry, m1 = 0.869
  mass density: 992.6 ± 1.2 kg/m3
298.15 K, 10000 kPa, Constant-volume piezometry, m1 = 2.465
  mass density: 982.7 ± 1.2 kg/m3
298.15 K, 20000 kPa, Constant-volume piezometry, m1 = 0.869
  mass density: 996.7 ± 1.2 kg/m3
298.15 K, 20000 kPa, Constant-volume piezometry, m1 = 2.465
  mass density: 986.6 ± 1.2 kg/m3
298.15 K, 30000 kPa, Constant-volume piezometry, m1 = 0.869
  mass density: 1000.6 ± 1.2 kg/m3
298.15 K, 30000 kPa, Constant-volume piezometry, m1 = 2.465
  mass density: 990.3 ± 1.2 kg/m3
298.15 K, 40000 kPa, Constant-volume piezometry, m1 = 0.869
  mass density: 1004.4 ± 1.3 kg/m3
298.15 K, 40000 kPa, Constant-volume piezometry, m1 = 2.465
  mass density: 993.8 ± 1.2 kg/m3
302.13 K, 2844 kPa, Constant-volume piezometry, m1 = 14.38
  mass density: 910.6 ± 1.1 kg/m3
302.13 K, 7747 kPa, Constant-volume piezometry, m1 = 14.38
  mass density: 913.1 ± 1.1 kg/m3
302.13 K, 13631 kPa, Constant-volume piezometry, m1 = 14.38
  mass density: 915.8 ± 1.1 kg/m3
302.8 K, 101 kPa, Pycnometric method, m1 = 2.531
  mass density: 974.74 ± 1 kg/m3
302.8 K, 101 kPa, Pycnometric method, m1 = 7.407
  mass density: 941.25 ± 0.97 kg/m3
302.8 K, 101 kPa, Pycnometric method, m1 = 14.38
  mass density: 908.75 ± 0.94 kg/m3
303.15 K, 5000 kPa, Constant-volume piezometry, m1 = 0.869
  mass density: 988.8 ± 1.2 kg/m3
303.15 K, 5000 kPa, Constant-volume piezometry, m1 = 2.465
  mass density: 978.4 ± 1.2 kg/m3
303.15 K, 10000 kPa, Constant-volume piezometry, m1 = 0.869
  mass density: 990.9 ± 1.2 kg/m3
303.15 K, 10000 kPa, Constant-volume piezometry, m1 = 2.465
  mass density: 980.5 ± 1.2 kg/m3
303.15 K, 20000 kPa, Constant-volume piezometry, m1 = 0.869
  mass density: 995 ± 1.2 kg/m3
303.15 K, 20000 kPa, Constant-volume piezometry, m1 = 2.465
  mass density: 984.4 ± 1.2 kg/m3
303.15 K, 30000 kPa, Constant-volume piezometry, m1 = 0.869
  mass density: 998.9 ± 1.2 kg/m3
303.15 K, 30000 kPa, Constant-volume piezometry, m1 = 2.465
  mass density: 988 ± 1.2 kg/m3
303.15 K, 40000 kPa, Constant-volume piezometry, m1 = 0.869
  mass density: 1002.7 ± 1.3 kg/m3
303.15 K, 40000 kPa, Constant-volume piezometry, m1 = 2.465
  mass density: 991.6 ± 1.2 kg/m3
303.2 K, 3334 kPa, Constant-volume piezometry, m1 = 2.531
  mass density: 975.9 ± 1.2 kg/m3
303.2 K, 7708 kPa, Constant-volume piezometry, m1 = 2.531
  mass density: 977.7 ± 1.2 kg/m3
304.65 K, 101 kPa, Pycnometric method, m1 = 2.936
  mass density: 975.69 ± 1 kg/m3
306 K, 101 kPa, Pycnometric method, m1 = 56.35
  mass density: 842.18 ± 0.87 kg/m3
307.99 K, 2942 kPa, Constant-volume piezometry, m1 = 56.35
  mass density: 872.9 ± 1.1 kg/m3
307.99 K, 14220 kPa, Constant-volume piezometry, m1 = 56.35
  mass density: 880.4 ± 1.1 kg/m3
308.55 K, 101 kPa, Pycnometric method, m1 = 0.869
  mass density: 986.52 ± 1 kg/m3
312.07 K, 2844 kPa, Constant-volume piezometry, m1 = 7.407
  mass density: 936.5 ± 1.1 kg/m3
312.07 K, 6865 kPa, Constant-volume piezometry, m1 = 7.407
  mass density: 938.7 ± 1.1 kg/m3
312.07 K, 12160 kPa, Constant-volume piezometry, m1 = 7.407
  mass density: 941.1 ± 1.1 kg/m3
312.65 K, 101 kPa, Pycnometric method, m1 = 2.531
  mass density: 969.82 ± 1 kg/m3
312.65 K, 101 kPa, Pycnometric method, m1 = 7.407
  mass density: 934.48 ± 0.97 kg/m3
312.65 K, 101 kPa, Pycnometric method, m1 = 14.38
  mass density: 901.37 ± 0.93 kg/m3
313.75 K, 101 kPa, Pycnometric method, m1 = 2.936
  mass density: 971.27 ± 1 kg/m3
320.75 K, 101 kPa, Pycnometric method, m1 = 56.35
  mass density: 829.47 ± 0.87 kg/m3
322.35 K, 101 kPa, Pycnometric method, m1 = 2.936
  mass density: 966.49 ± 1 kg/m3
323.15 K, 5000 kPa, Constant-volume piezometry, m1 = 0.869
  mass density: 980.8 ± 1.2 kg/m3
323.15 K, 5000 kPa, Constant-volume piezometry, m1 = 2.465
  mass density: 968.2 ± 1.2 kg/m3
323.15 K, 10000 kPa, Constant-volume piezometry, m1 = 0.869
  mass density: 982.9 ± 1.2 kg/m3
323.15 K, 10000 kPa, Constant-volume piezometry, m1 = 2.465
  mass density: 970.3 ± 1.2 kg/m3
323.15 K, 20000 kPa, Constant-volume piezometry, m1 = 0.869
  mass density: 986.9 ± 1.2 kg/m3
323.15 K, 20000 kPa, Constant-volume piezometry, m1 = 2.465
  mass density: 974.3 ± 1.2 kg/m3
323.15 K, 30000 kPa, Constant-volume piezometry, m1 = 0.869
  mass density: 990.8 ± 1.2 kg/m3
323.15 K, 30000 kPa, Constant-volume piezometry, m1 = 2.465
  mass density: 978 ± 1.2 kg/m3
323.15 K, 40000 kPa, Constant-volume piezometry, m1 = 0.869
  mass density: 994.5 ± 1.3 kg/m3
323.15 K, 40000 kPa, Constant-volume piezometry, m1 = 2.465
  mass density: 981.6 ± 1.2 kg/m3
326.05 K, 101 kPa, Pycnometric method, m1 = 2.531
  mass density: 962.17 ± 1 kg/m3
326.05 K, 101 kPa, Pycnometric method, m1 = 7.407
  mass density: 924.78 ± 0.97 kg/m3
326.05 K, 101 kPa, Pycnometric method, m1 = 14.38
  mass density: 890.78 ± 0.93 kg/m3
331.05 K, 101 kPa, Pycnometric method, m1 = 56.35
  mass density: 820.42 ± 0.86 kg/m3
340.85 K, 101 kPa, Pycnometric method, m1 = 2.531
  mass density: 952.6 ± 1 kg/m3
340.85 K, 101 kPa, Pycnometric method, m1 = 7.407
  mass density: 913.42 ± 0.96 kg/m3
340.85 K, 101 kPa, Pycnometric method, m1 = 14.38
  mass density: 878.68 ± 0.93 kg/m3
342.49 K, 2353 kPa, Constant-volume piezometry, m1 = 14.38
  mass density: 877.9 ± 1.1 kg/m3
342.49 K, 6159 kPa, Constant-volume piezometry, m1 = 14.38
  mass density: 880.3 ± 1.1 kg/m3
342.49 K, 10199 kPa, Constant-volume piezometry, m1 = 14.38
  mass density: 882.7 ± 1.1 kg/m3
342.49 K, 14455 kPa, Constant-volume piezometry, m1 = 14.38
  mass density: 885.4 ± 1.1 kg/m3
343.48 K, 2942 kPa, Constant-volume piezometry, m1 = 7.407
  mass density: 913.7 ± 1.1 kg/m3
343.48 K, 6767 kPa, Constant-volume piezometry, m1 = 7.407
  mass density: 915.8 ± 1.1 kg/m3
343.48 K, 12690 kPa, Constant-volume piezometry, m1 = 7.407
  mass density: 919 ± 1.1 kg/m3
343.94 K, 2353 kPa, Constant-volume piezometry, m1 = 2.531
  mass density: 950.6 ± 1.1 kg/m3
343.94 K, 6374 kPa, Constant-volume piezometry, m1 = 2.531
  mass density: 952.5 ± 1.2 kg/m3
343.94 K, 10787 kPa, Constant-volume piezometry, m1 = 2.531
  mass density: 954.3 ± 1.2 kg/m3
347.63 K, 3668 kPa, Constant-volume piezometry, m1 = 56.35
  mass density: 838 ± 1 kg/m3
347.63 K, 10120 kPa, Constant-volume piezometry, m1 = 56.35
  mass density: 843.1 ± 1 kg/m3
348.15 K, 5000 kPa, Constant-volume piezometry, m1 = 0.869
  mass density: 967.9 ± 1.2 kg/m3
348.15 K, 5000 kPa, Constant-volume piezometry, m1 = 2.465
  mass density: 952.7 ± 1.2 kg/m3
348.15 K, 10000 kPa, Constant-volume piezometry, m1 = 0.869
  mass density: 970 ± 1.2 kg/m3
348.15 K, 10000 kPa, Constant-volume piezometry, m1 = 2.465
  mass density: 954.9 ± 1.2 kg/m3
348.15 K, 20000 kPa, Constant-volume piezometry, m1 = 0.869
  mass density: 974.1 ± 1.2 kg/m3
348.15 K, 20000 kPa, Constant-volume piezometry, m1 = 2.465
  mass density: 959.1 ± 1.2 kg/m3
348.15 K, 30000 kPa, Constant-volume piezometry, m1 = 0.869
  mass density: 978 ± 1.2 kg/m3
348.15 K, 30000 kPa, Constant-volume piezometry, m1 = 2.465
  mass density: 963.1 ± 1.2 kg/m3
348.15 K, 40000 kPa, Constant-volume piezometry, m1 = 0.869
  mass density: 981.8 ± 1.2 kg/m3
348.15 K, 40000 kPa, Constant-volume piezometry, m1 = 2.465
  mass density: 966.8 ± 1.2 kg/m3
349.85 K, 101 kPa, Pycnometric method, m1 = 2.531
  mass density: 946.25 ± 1 kg/m3
349.85 K, 101 kPa, Pycnometric method, m1 = 7.407
  mass density: 906.29 ± 0.96 kg/m3
349.85 K, 101 kPa, Pycnometric method, m1 = 14.38
  mass density: 870.71 ± 0.93 kg/m3
352.05 K, 101 kPa, Pycnometric method, m1 = 56.35
  mass density: 801.03 ± 0.86 kg/m3
373.15 K, 5000 kPa, Constant-volume piezometry, m1 = 0.869
  mass density: 951.6 ± 1.2 kg/m3
373.15 K, 5000 kPa, Constant-volume piezometry, m1 = 2.465
  mass density: 934.2 ± 1.1 kg/m3
373.15 K, 10000 kPa, Constant-volume piezometry, m1 = 0.869
  mass density: 953.9 ± 1.2 kg/m3
373.15 K, 10000 kPa, Constant-volume piezometry, m1 = 2.465
  mass density: 937 ± 1.1 kg/m3
373.15 K, 20000 kPa, Constant-volume piezometry, m1 = 0.869
  mass density: 958.3 ± 1.2 kg/m3
373.15 K, 20000 kPa, Constant-volume piezometry, m1 = 2.465
  mass density: 941.3 ± 1.2 kg/m3
373.15 K, 30000 kPa, Constant-volume piezometry, m1 = 0.869
  mass density: 962.4 ± 1.2 kg/m3
373.15 K, 30000 kPa, Constant-volume piezometry, m1 = 2.465
  mass density: 945.7 ± 1.2 kg/m3
373.15 K, 40000 kPa, Constant-volume piezometry, m1 = 0.869
  mass density: 966.3 ± 1.2 kg/m3
373.15 K, 40000 kPa, Constant-volume piezometry, m1 = 2.465
  mass density: 949.7 ± 1.2 kg/m3
